The numbers were not newly measured in patent publication US8846607B2, “Particles for treatment of pulmonary infection” (President and Fellows of Harvard College, priority 2004, dated 2014), which cites them from elsewhere.

This data set has as its system non-replicating TB. To be noted: after one month, non-replicating TB in vitro.

For capreomycin, the “log decrease in colony forming units (CFU)” value is on record as “one to two”.
